According to US20090082350A1, “SOLUBLE EPOXIDE HYDROLASE INHIBITORS” (Arete Therapeutics, Inc., priority 2007, published 2009):

What was measured:
[1] = system: soluble epoxide hydrolase (sEH); assay: Fluorescent assay for mouse and human soluble epoxide hydrolase (CMNPC substrate); format: biochemical
Description: Fluorescent Assay for Mouse and Human Soluble Epoxide Hydrolase
Recombinant mouse sEH (MsEH) and human sEH (HsEH) were produced in a baculovirus expression system as previously reported. Grant et al., J. Biol. Chem., 268:17628-17633 (1993); Beetham et al., Arch. Biochem. Biophys., 305:197-201 (1993). The expressed proteins were purified from cell lysate by affinity chromatography. Wixtrom et al., Anal. Biochem., 169:71-80 (1988). Protein concentration was quantified using the Pierce BCA assay using bovine serum albumin as the calibrating standard. The preparations were at least 97% pure as judged by SDS-PAGE and scanning densitometry. They contained no detectable esterase or glutathione transferase activity which can interfere with the assay. The assay was also evaluated with similar results in crude cell lysates or homogenate of tissues.
The IC50s for each inhibitor were according to the following procedure:
Cyano(2-methoxynaphthalen-6-yl)methyl (3-phenyloxiran-2-yl)methyl carbonate (CMNPC; Jones P. D. et. al.; Analytical Biochemistry 2005; 343: pp. 66-75)
Bis/Tris HCl 25 mM pH 7.0 containing 0.1 mg/mL of BSA (buffer A)
CMNPC at 0.25 mM in DMSO.
Mother solution of enzyme in buffer A (Mouse sEH at 6 μg/mL and Human sEH at […]).
Inhibitor dissolved in DMSO at the appropriate concentration.
In a black 96 well plate, fill all the wells with 150 μL of buffer A.
Add 2 μL of DMSO in well A2 and A3, and then add 2 μL of inhibitor solution in A1 and A4 through A12.
Add […] of buffer A in row A, then mix several time and transfer 150 L to row B. Repeat this operation up to row H. The 150 L removed from row H go to the trash.
Add […] of buffer A in column 1 and 2, then add […] of enzyme solution to column 3 to 12.
Incubate the plate for 5 minutes in the plate reader at 30° C.
During incubation prepare the working solution of substrate by mixing 3.68 mL of buffer A (4×0.920 mL) with 266 μL (2×133 μL) of substrate solution).
At t=0, add 30 L of working substrate solution with multi-channel pipette labeled “Briggs 303” and start the reading ([S]final: 5 μM).
Read with ex: 330 nm (20 nm) and em: 465 nm (20 nm) every 30 second for 10 minutes. The velocities are used to analyze and calculate the IC50s.

[2] = inhibitor concentration 50000 nM
[3] = inhibitor concentration 5000 nM

| Structure (SMILES) | % Inh ([1]; inhibitor concentration 50 nM) | melting point | other results |
| --- | --- | --- | --- |
| CCOC(=O)c1nnc(NC(=O)NC23CC4CC(CC(C4)C2)C3)s1 [Compound 26, ethyl 5-(3-adamantylureido)-1,3,4-thiadiazole-2-carboxylate] | 91% | – | – |
| CC(=O)Nc1ccc(NC(=O)NC23CC4CC(CC(C4)C2)C3)cn1 [Compound 4, N-(5-(3-adamantylureido)pyridin-2-yl)acetamide] | 77% | 252 to 254 °C | – |
| O=C(Nc1ccc(C(F)(F)F)cc1)Nc1ccc(Oc2ccccc2)nc1 [Compound 15, 1-(6-phenoxypyridin-3-yl)-3-(4-(trifluoromethyl)phenyl)urea] | 90% | – | – |
| COc1ccc(-c2nnc(NC(=O)NC34CC5CC(CC(C5)C3)C4)s2)cc1 [Compound 9, 1-adamantan-1-yl-3-(5-(4-methoxyphenyl)-1,3,4-thiadiazol-2-yl)urea] | – | 324 to 328 °C | % Inh [1, 2]: 37% |
| O=C(Nc1ccc(C(F)(F)F)cc1)Nc1cc(C(=O)N2CCOCC2)cs1 [Compound 13, 1-(4-(morpholine-4-carbonyl)thiophen-2-yl)-3-(4-(trifluoromethyl)phenyl)urea] | 73% | 250 to 253 °C | – |
| CC(=O)Nc1ccc(NC(=O)Nc2ccc(Cl)cc2)cn1 [Compound 6, N-(5-(3-(4-chlorophenyl)ureido)pyridin-2-yl)acetamide] | – | 269 to 271 °C | % Inh ([1]; inhibitor concentration 500 nM): 87% |
| O=C(Nc1ccc(Cl)cc1)Nc1cc(C(=O)N2CCOCC2)ccn1 [Compound 19, 1-(4-chlorophenyl)-3-(4-(morpholine-4-carbonyl)pyridin-2-yl)urea] | – | 189 to 192 °C | % Inh ([1]; inhibitor concentration 500 nM): 72% |
| O=C(Nc1ccc(C(F)(F)F)cc1)Nc1ccc(C(=O)N2CCOCC2)s1 [Compound 3, 1-(5-(morpholine-4-carbonyl)thiophen-2-yl)-3-(4-(trifluoromethyl)phenyl)urea] | 98% | 250 to 253 °C | – |
| O=C(Nc1cncc(C(=O)N2CCOCC2)c1)Nc1cccc(C(F)(F)F)c1 [Compound 24, 1-(5-(morpholine-4-carbonyl)pyridin-3-yl)-3-(3-(trifluoromethyl)phenyl)urea] | – | 75 to 80 °C | % Inh [1, 3]: 60% |
| O=C(Nc1ccc(C(F)(F)F)cc1)Nc1cncc(C(=O)N2CCOCC2)c1 [Compound 23, 1-(5-(morpholine-4-carbonyl)pyridin-3-yl)-3-(4-(trifluoromethyl)phenyl)urea] | – | 114 to 118 °C | % Inh ([1]; inhibitor concentration 500 nM): 75% |
| O=C(Nc1ccc(Oc2ccccc2)nc1)NC12CC3CC(CC(C3)C1)C2 [Compound 16, 1-adamantan-1-yl-3-(6-phenoxypyridin-3-yl)urea] | 95% | 185 to 188 °C | – |
| COc1ccc(-c2nnc(NC(=O)Nc3cccc(C(F)(F)F)c3)s2)cc1 [Compound 10, 1-(5-(4-methoxyphenyl)-1,3,4-thiadiazol-2-yl)-3-(3-(trifluoromethyl)phenyl)urea] | – | 331 to 336 °C | % Inh ([1]; inhibitor concentration 12500 nM): 39% |
| O=C(Nc1cccc(C(F)(F)F)c1)Nc1cccc(C(=O)N2CCOCC2)n1 [Compound 20, 1-(6-(morpholine-4-carbonyl)pyridin-2-yl)-3-(3-(trifluoromethyl)phenyl)urea] | – | 175 to 179 °C | % Inh [1, 2]: 96% |
| COc1ccc(-c2cc(NC(=O)Nc3ccc(C(F)(F)F)cc3)[nH]n2)cc1 [Compound 2, 1-(3-(4-methoxyphenyl)-1H-pyrazol-5-yl)-3-(4-(trifluoromethyl)phenyl)urea] | – | 228 to 231 °C | % Inh ([1]; inhibitor concentration 500 nM): 89% |
| O=C(Nc1ncc(C(=O)O)s1)NC12CC3CC(CC(C3)C1)C2 [Compound 25, 2-(3-adamantylureido)thiazole-5-carboxylic acid] | – | – | % Inh [1, 2]: 81% |
| COc1ccc(-c2cc(NC(=O)Nc3cccc(C(F)(F)F)c3)[nH]n2)cc1 [Compound 5, 1-(3-(4-methoxyphenyl)-1H-pyrazol-5-yl)-3-(3-(trifluoromethyl)phenyl)urea] | – | 189 to 194 °C | % Inh [1, 3]: 92% |
| O=C(Nc1ccc(Cl)cc1)Nc1ccc(C(=O)N2CCOCC2)s1 [Compound 11, 1-(4-chlorophenyl)-3-(5-(morpholine-4-carbonyl)thiophen-2-yl)urea] | 76% | 242 to 245 °C | – |
| O=C(Nc1ccc(C(F)(F)F)cc1)Nc1cccc(C(=O)N2CCOCC2)n1 [Compound 12, 1-(6-(morpholine-4-carbonyl)pyridin-2-yl)-3-(4-(trifluoromethyl)phenyl)urea] | – | 208 to 210 °C | % Inh [1, 2]: 96% |
| O=C(Nc1ccc(C(F)(F)F)cc1)Nc1ccc(C(=O)N2CCOCC2)cn1 [Compound 8, 1-(5-(morpholine-4-carbonyl)pyridin-2-yl)-3-(4-(trifluoromethyl)phenyl)urea] | – | 233 to 237 °C | % Inh ([1]; inhibitor concentration 500 nM): 69% |
| O=C(Nc1cccc(C(F)(F)F)c1)Nc1cc(C(=O)N2CCOCC2)cs1 [Compound 14, 1-(4-(morpholine-4-carbonyl)thiophen-2-yl)-3-(3-(trifluoromethyl)phenyl)urea] | – | 210 to 215 °C | % Inh [1, 3]: 89% |
| COc1ccc(NC(=O)NC23CC4CC(CC(C4)C2)C3)cn1 [Compound 7, 1-adamantan-1-yl-3-(6-methoxypyridin-3-yl)urea] | 64% | 205 to 211 °C | – |
| O=C(Nc1ccc(C(F)(F)F)cc1)Nc1cc(C(=O)N2CCOCC2)ccn1 [Compound 17, 1-(4-(morpholine-4-carbonyl)pyridin-2-yl)-3-(4-(trifluoromethyl)phenyl)urea] | – | 200 to 206 °C | % Inh ([1]; inhibitor concentration 500 nM): 91% |
| O=C(Nc1ccc(Cl)cc1)Nc1cccc(C(=O)N2CCOCC2)n1 [Compound 18, 1-(4-chlorophenyl)-3-(6-(morpholine-4-carbonyl)pyridin-2-yl)urea] | – | 205 to 208 °C | % Inh [1, 2]: 87% |
| COc1ccc(-c2cc(NC(=O)NC34CC5CC(CC(C5)C3)C4)[nH]n2)cc1 [Compound 1, 1-adamantan-1-yl-3-(3-(4-methoxyphenyl)-1H-pyrazol-5-yl)urea] | – | – | % Inh [1, 3]: 89% |
| COc1ccc(-c2cc(NC(=O)Nc3ccc(Cl)cc3)on2)cc1 [Compound 22, 1-(4-chlorophenyl)-3-(3-(4-methoxyphenyl)isoxazol-5-yl)urea] | – | 165 to 170 °C | % Inh [1, 3]: 92% |
| CCOC(=O)c1cnc(NC(=O)NC23CC4CC(CC(C4)C2)C3)s1 [Compound 21, ethyl 2-(3-adamantylureido)thiazole-5-carboxylate] | – | – | % Inh ([1]; inhibitor concentration 500 nM): 97% |
